Biological target: T1, human MR (Homo sapiens, UniProt P08235)
T1 construct: The full length human MR gene is cloned from a human kidney or human brain cDNA library; made in house; host or cells: SF9 insect cells (baculovirus)
T1 sequence (P08235 1-984): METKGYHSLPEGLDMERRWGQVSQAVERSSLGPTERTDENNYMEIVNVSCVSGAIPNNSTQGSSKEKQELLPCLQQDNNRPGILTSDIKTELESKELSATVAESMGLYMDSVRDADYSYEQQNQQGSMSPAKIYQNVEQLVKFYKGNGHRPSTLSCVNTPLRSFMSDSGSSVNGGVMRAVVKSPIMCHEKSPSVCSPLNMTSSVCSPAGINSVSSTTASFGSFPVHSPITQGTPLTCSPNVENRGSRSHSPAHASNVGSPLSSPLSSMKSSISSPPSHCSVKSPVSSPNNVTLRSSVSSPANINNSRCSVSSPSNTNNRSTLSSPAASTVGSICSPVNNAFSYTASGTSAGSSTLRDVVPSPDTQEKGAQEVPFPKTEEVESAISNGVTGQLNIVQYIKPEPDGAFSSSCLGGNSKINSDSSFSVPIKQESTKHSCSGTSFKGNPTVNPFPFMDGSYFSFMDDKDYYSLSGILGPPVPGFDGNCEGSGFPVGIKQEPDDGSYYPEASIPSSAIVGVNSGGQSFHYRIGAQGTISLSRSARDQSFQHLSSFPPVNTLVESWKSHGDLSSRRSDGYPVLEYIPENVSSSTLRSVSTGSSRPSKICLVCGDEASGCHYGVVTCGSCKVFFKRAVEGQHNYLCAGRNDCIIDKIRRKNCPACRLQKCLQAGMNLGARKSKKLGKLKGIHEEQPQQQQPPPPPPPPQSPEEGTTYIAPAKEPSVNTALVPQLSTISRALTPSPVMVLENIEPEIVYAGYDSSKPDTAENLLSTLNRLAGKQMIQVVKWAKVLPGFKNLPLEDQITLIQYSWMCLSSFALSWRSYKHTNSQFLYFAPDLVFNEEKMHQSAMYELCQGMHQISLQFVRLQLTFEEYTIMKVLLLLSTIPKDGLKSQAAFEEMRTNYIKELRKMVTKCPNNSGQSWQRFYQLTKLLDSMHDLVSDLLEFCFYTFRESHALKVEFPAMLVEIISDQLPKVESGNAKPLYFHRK
Test: Mineralocorticoid Receptor Binding Assay (Method 1)
Conditions: [3H]-aldosterone, racemic mixture unless otherwise indicated
In short: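 Lysate of Sf9 cells expressing baculovirus full-length human MR (20-25 μg protein) incubated with 0.5 nM [3H]-aldosterone and test compound, pH 7.5 molybdate buffer, 16 h at 4 °C. Bound ligand collected by filtration and counted by scintillation. IC50 for displacement; Ki by Cheng-Prusoff.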

Ki [nM]	Compound
≤ 500	CCC1(c2c[nH]c3c(NS(=O)(=O)c4ccccc4)cccc23)CCc2cc(F)ccc21 (stereo not drawn) [Example 18, N-[3-(1-ethyl-5-fluoro-indan-1-yl)-1H-indol-7-yl]-benzenesulfonamide]
≤ 500	CC1(c2c[nH]c3c(NS(C)(=O)=O)cccc23)CCc2cc(F)ccc21 (single isomer, unassigned) [Example 21B, N-[3-(5-Fluoro-1-methyl-indan-1-yl)-1H-indol-7-yl]-methanesulfonamide]
≤ 500	CC1(c2c[nH]c3c(NS(C)(=O)=O)cccc23)CCOc2ccccc21 (stereo not drawn) [Example 32, N-[3-(4-Methyl-chroman-4-yl)-1H-indol-7-yl]-methanesulfonamide]
